According to patent US11912723B2, “KRAS modulators and uses thereof” (Quanta Therapeutics, Inc., priority 2022, dated 2024):
pIC50: −log10 of the molar value.

Assays:
[1] = tested on: AGS (KRAS G12D) cells, phospho-ERK; experiment: pERK In Cell Western (ICW) assay (Method B); assay type: cell-based; settings: 3 hours
Protocol: pERK ICW is a high throughput screening assay to evaluate the cellular potency of mutant KRAS small molecule inhibitors. KRAS mutant cell line AGS (KRAS^G12D) were purchased from ATCC and maintained in DMEM and RPMI medium supplemented with 10% fetal bovine serum and Penicillin/Streptomycin.
Cells grown in exponential phase were trypsinized, resuspended in fresh media, and viable cells were counted using a cell counter with Trypan Blue (BioRad TC20). Cells were seeded into 384-well plate (Greiner 781091) at density of 5,000 cells/well for AGS and allowed to grow overnight in a 37° C. CO2 incubator. The next day, compounds were dispensed into wells with a ½ log, 10-point serial dilution and top concentration of 10 μM using Tecan D300e dispenser and incubated for 3 hours in a 37° C. CO2 incubator. Cells were then fixed with paraformaldehyde (Electron Microscopy Sciences, 15710, 4% final concentration) for 30 min, permeabilized with wash buffer (1×PBS+0.1% Triton X-100) for 30 min and blocked with Odyssey blocking buffer (Li—COR 927-70001) for 1 hour, all at room temperature (RT). Phospho-ERK antibody (CST 4370L) was diluted 1:500 in Odyssey blocking+0.2% Tween 20 and incubated with cells overnight at 4° C. The next day, plates were washed 5× with wash buffer, incubated with IRDye 800 CW, Goat anti-Rabbit secondary antibody (Li—COR 926-32211, 1:500) and DRAQ5 (CST 4084L, 1:5,000) diluted in Odyssey blocking+0.2% Tween 20 for 1 hour, washed 5×, and imaged on an Odyssey CLx imaging system.
For data analysis, signal intensities from 800 (phosphor-ERK) and 700 (DRAQ5) channels were extracted, and phospho-ERK signals were normalized to DRAQ5 signals for each well and percent of DMSO control values were computed. Data were then imported into Graphpad Prism to compute half-maximal inhibitory concentrations (IC50) using a 4-parameter variable slope model. Z-factor for each plate was computed from signals derived from wells treated with either DMSO or 5 μM of Trametinib. AGS pERK ICW (Method B) IC50 (uM) values of selected compounds are depicted in Table 2 with compounds having a value 0.001 uM to 0.01 uM as ++++; >0.01 uM to 0.1 uM as +++; >0.1 uM to 1 uM as ++; 1 uM to 10 uM as + and >10 uM as NA.

[2] = target: T1, GST-tagged KRAS G12D (2-169) (Homo sapiens, UniProt P01116, G12D); experiment: Nucleotide exchange assay (NEA), HTRF of SOS-mediated GTP-DY-647P1 binding; assay type: biochemical; settings: 5 nM GST-KRAS G12D, 20 nM SOScat, 150 nM GTP; compound 1 h at RT
T1 construct: GST-tagged KRAS^G12D (2-169, Reaction Biology, MSC-11-539); purchased Reaction Biology MSC-11-539 (KRAS G12D); MSC-11-502 (SOS1cat)
T1 sequence (P01116 2-169 isoform P01116-2 G12D): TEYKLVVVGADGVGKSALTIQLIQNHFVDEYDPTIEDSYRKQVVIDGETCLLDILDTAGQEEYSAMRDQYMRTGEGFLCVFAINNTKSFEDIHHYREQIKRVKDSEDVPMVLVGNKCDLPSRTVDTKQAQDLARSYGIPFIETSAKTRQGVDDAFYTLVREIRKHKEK
Outline: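 After 1 h RT preincubation of compound with KRAS, SOS1cat (20 nM final) and fluorescent GTP analog (150 nM) were added to 5 nM KRAS; HTRF (anti-GST Tb donor) followed at RT for up to 90 min. % inhibition relative to DMSO and no-SOS1 blank, 4-parameter curve fit.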

With `OC1CCCN(c2nc(OC[C@@]34CCCN3C[C@H](F)C4)nc3c2COC2(CCc4c(Cl)cccc42)C3)CC1` (mixture of isomers) [Compound 6, 1-[4′-chloro-2-[[rac-(2R,8S)-2-fluoro-1,2,3,5,6,7-hexahydropyrrolizin-8-yl]methoxy]spiro[5,8-dihydropyrano[4,3-d]pyrimidine-7,1′-indane]-4-yl]azepan-4-ol] the IC50 ([1]; Homo sapiens) was > 10 µM and the pIC50 [2] was 4.70 to 6.00.

Work on `CN(C)C(=O)c1cc2n(n1)CCCN(c1nc(OC[C@@]34CCCN3C[C@H](F)C4)nc3c1COC1(CCCc4c(Cl)cc(O)cc41)C3)C2` (mixture of isomers) [Compound 43, 5-[5′-chloro-7′-hydroxy-2-[[rac-(2R,8S)-2-fluoro-1,2,3,5,6,7-hexahydropyrrolizin-8-yl]methoxy]spiro[5,8-dihydropyrano[4,3-d]pyrimidine-7,1′-tetralin]-4-yl]-N,N-dimethyl-4,6,7,8-tetrahydropyrazolo[1,5-a][1,4]diazepine-2-carboxamide] yielded an IC50 ([1]; Homo sapiens) of 1 to 10 µM and a pIC50 [2] of 7.00 to 8.00.

For `C=C1CN2CCCC2(COc2nc3c(c(N4CCCn5nc(C(=O)N(C)C)c(Cl)c5C4)n2)CO[C@@]2(CCc4c(Cl)cccc42)C3)C1` (mixture of isomers) [Compound 54, 3-chloro-N,N-dimethyl-5-[rac-(7S)-4′-chloro-2-[(6-methylene-2,3,5,7-tetrahydro-1H-pyrrolizin-8-yl)methoxy]spiro[5,8-dihydropyrano[4,3-d]pyrimidine-7,1′-indane]-4-yl]-4,6,7,8-tetrahydropyrazolo[1,5-a][1,4]diazepine-2-carboxamide], the IC50 ([1]; Homo sapiens) was 0.1 to 1 µM and the pIC50 [2] was > 8.00.

`Oc1ccc2c(c1)C1(CCC2)Cc2nc(OC[C@@]34CCCN3C[C@H](F)C4)nc(N3CCCCCC3)c2CO1` (single isomer, unassigned) [Compound 7] was tested, and the IC50 ([1]; Homo sapiens) was > 10 µM and the pIC50 [2] was 4.70 to 6.00.

For `Oc1ccc2c(c1)C1(CCC2)Cc2nc(OC[C@@]34CCCN3C[C@H](F)C4)nc(N3CCCCCC3)c2CO1` (single isomer, unassigned) [Compound 8], the IC50 [1] was > 10 µM and the pIC50 [2] was 6.00 to 7.00.

With `O=C1NC(=O)C2(CCCN(c3nc(OC[C@@]45CCCN4C[C@H](F)C5)nc4c3COC3(CCc5c(Cl)cccc53)C4)C2)N1` (single isomer, unassigned) [Compound 24A, (5*)-9-[(7*)-4′-chloro-2-[[(2R,8S)-2-fluoro-1,2,3,5,6,7-hexahydropyrrolizin-8-yl]methoxy]spiro[5,8-dihydropyrano[4,3-d]pyrimidine-7,1′-indane]-4-yl]-1,3,9-triazaspiro[4.5]decane-2,4-dione] the IC50 ([1]; Homo sapiens) was 1 to 10 µM and the pIC50 [2] was 7.00 to 8.00.

In the case of `F[C@H]1CN2CCC[C@@]2(COc2nc3c(c(N4CCCCCC4)n2)COC2(CCc4c(Cl)cccc42)C3)C1` (stereo partly drawn) [Compound 1, 4′-(azepan-1-yl)-4-chloro-2′-(((2R,7aS)-2-fluorotetrahydro-1H-pyrrolizin-7a(5H)-yl)methoxy)-2,3,5′,8′-tetrahydrospiro[indene-1,7′-pyrano[4,3-d]pyrimidine]], the IC50 ([1]; Homo sapiens) was > 10 µM and the pIC50 [2] was 4.70 to 6.00.

Compound `F[C@H]1CN2CCC[C@@]2(COc2nc3c(c(N4C[C@H]5CC[C@@H](C4)N5)n2)COC2(CCc4c(Cl)cccc42)C3)C1` (stereo partly drawn) [Compound 2, 4′-((1R,5S)-3,8-diazabicyclo[3.2.1]octan-3-yl)-4-chloro-2′-(((2R,7aS)-2-fluorotetrahydro-1H-pyrrolizin-7a(5H)-yl)methoxy)-2,3,5′,8′-tetrahydrospiro[indene-1,7′-pyrano[4,3-d]pyrimidine]] has an IC50 ([1]; Homo sapiens) of 1 to 10 µM and a pIC50 [2] of 7.00 to 8.00.

With `OC1CCCN(c2nc(OC[C@@]34CCCN3C[C@H](F)C4)nc3c2COC2(CCCc4ccc(Br)cc42)C3)CC1` (stereo partly drawn) [Compound 4, 1-[7′-bromo-2-[[(2R,8S)-2-fluoro-1,2,3,5,6,7-hexahydropyrrolizin-8-yl]methoxy]spiro[5,8-dihydropyrano[4,3-d]pyrimidine-7,1′-tetralin]-4-yl]azepan-4-ol] the IC50 ([1]; Homo sapiens) was > 10 µM and the pIC50 [2] was 4.70 to 6.00.
